ChEMBL document CHEMBL1142994, “Structure-based design, synthesis, and biological evaluation of potent and selective macrocyclic checkpoint kinase 1 inhibitors” (J Med Chem, 2007)

Columns and labels:
[1] = target: T1, Serine/threonine-protein kinase Chk1 (Homo sapiens, UniProt O14757); assay: Inhibition of recombinant Chk1
T1 sequence (O14757 whole entry): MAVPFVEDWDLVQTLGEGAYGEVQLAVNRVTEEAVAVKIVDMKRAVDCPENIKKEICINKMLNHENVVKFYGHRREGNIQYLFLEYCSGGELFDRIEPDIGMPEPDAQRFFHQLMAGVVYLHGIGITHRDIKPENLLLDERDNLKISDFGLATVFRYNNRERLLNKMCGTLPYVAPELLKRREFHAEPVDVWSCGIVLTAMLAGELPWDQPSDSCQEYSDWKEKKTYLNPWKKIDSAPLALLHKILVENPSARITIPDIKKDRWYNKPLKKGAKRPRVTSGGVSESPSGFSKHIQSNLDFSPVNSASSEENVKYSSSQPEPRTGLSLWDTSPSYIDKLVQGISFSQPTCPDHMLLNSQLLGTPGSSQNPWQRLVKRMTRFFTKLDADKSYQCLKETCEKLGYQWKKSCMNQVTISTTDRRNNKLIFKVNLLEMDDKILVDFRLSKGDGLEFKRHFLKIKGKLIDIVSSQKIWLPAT

HeLa [2] = assay: Cytotoxicity against HeLa cells in presence of doxorubicin by MTS assay; format: functional, cell-based, Homo sapiens
HeLa [3] = assay: Cytotoxicity against HeLa cells by MTS assay; format: functional, cell-based, Homo sapiens
NCI-H1299 [4] = assay: Accumulation of H1299 cells in G2/M phase measured as cell cycle arrest by FACS assay; format: functional, cell-based, Homo sapiens
NCI-H1299 [5] = assay: Inhibition of accumulation of H1299 cells in G2/M phase in presence of doxorubicin by FACS assay; format: functional, cell-based, Homo sapiens
[6] = target: T2, Serine/threonine-protein kinase Sgk1 (Homo sapiens, UniProt O00141); assay: Inhibition of SGK
T2 sequence (O00141 whole entry): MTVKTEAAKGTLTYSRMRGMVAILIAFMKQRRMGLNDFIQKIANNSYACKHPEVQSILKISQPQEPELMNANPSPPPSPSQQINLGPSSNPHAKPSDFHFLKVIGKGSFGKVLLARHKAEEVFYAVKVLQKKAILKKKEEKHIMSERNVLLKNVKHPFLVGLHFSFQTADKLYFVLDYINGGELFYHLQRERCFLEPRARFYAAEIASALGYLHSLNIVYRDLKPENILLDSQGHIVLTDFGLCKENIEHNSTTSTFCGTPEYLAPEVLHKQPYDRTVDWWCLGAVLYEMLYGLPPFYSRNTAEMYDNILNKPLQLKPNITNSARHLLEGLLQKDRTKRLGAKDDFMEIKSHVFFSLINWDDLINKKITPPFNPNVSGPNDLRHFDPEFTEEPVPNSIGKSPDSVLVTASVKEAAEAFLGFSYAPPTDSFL

[7] = target: T3, Mitogen-activated protein kinase 13 (Homo sapiens, UniProt O15264); assay: Inhibition of p38 delta
T3 sequence (O15264 whole entry): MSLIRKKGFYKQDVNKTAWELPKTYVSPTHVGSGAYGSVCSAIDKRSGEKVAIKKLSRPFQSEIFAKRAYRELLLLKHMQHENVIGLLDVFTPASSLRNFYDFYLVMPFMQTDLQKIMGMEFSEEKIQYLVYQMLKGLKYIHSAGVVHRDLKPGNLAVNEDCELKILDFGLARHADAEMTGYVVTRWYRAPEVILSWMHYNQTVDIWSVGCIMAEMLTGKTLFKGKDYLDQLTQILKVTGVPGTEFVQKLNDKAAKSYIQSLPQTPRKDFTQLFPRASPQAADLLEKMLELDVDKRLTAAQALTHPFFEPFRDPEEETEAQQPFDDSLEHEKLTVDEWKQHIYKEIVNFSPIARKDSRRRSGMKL

[8] = target: T4, Calcium/calmodulin-dependent protein kinase type IV (Homo sapiens, UniProt Q16566); assay: Inhibition of Camk4
T4 sequence (Q16566 whole entry): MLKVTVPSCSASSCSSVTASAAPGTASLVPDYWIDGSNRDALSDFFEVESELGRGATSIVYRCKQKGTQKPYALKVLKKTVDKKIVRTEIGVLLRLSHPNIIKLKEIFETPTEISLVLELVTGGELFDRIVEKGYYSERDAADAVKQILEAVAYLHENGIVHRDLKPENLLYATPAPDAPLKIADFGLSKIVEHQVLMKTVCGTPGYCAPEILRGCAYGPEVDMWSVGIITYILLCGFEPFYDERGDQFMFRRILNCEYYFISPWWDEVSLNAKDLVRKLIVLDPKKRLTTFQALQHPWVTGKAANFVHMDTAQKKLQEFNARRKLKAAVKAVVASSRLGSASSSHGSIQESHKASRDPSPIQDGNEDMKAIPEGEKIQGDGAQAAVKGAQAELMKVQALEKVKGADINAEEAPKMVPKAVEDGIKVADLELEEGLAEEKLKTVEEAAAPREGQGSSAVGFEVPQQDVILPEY

[9] = Homo sapiens, HeLa, read-out: EC50

Compound | IC50 [1] [nM] | also measured
N#Cc1ncc2nc1OCCCCCOc1cc(OCCCN)c(Cl)cc1NC(=O)N2 | 1 | –
N#Cc1ncc2nc1OCCCCCOc1ccc(Cl)cc1NC(=O)N2 | 7 | EC50 (HeLa [2]; Homo sapiens, HeLa): 3040 nM; EC50 (HeLa [3]): 57600 nM; EC50 (NCI-H1299 [4]; Homo sapiens, NCI-H1299): > 10000 nM; EC50 (NCI-H1299 [5]; Homo sapiens, NCI-H1299): 2700 nM
N#Cc1ncc2nc1OCCCCCOc1cc(OCCCO)c(Cl)cc1NC(=O)N2 | – | Ki [6]: > 10000 nM; Ki [7]: > 10000 nM; Ki [8]: > 10000 nM
N#Cc1ncc2nc1OCCCCCOc1cc(N3CCCCC3)c(Cl)cc1NC(=O)N2 | 139 | –
CCN(CC)c1cc2c(cc1Cl)NC(=O)Nc1cnc(C#N)c(n1)OCCCCCO2 | 248 | –
N#Cc1ncc2nc1OCCCCCOc1cc(N)c(Cl)cc1NC(=O)N2 | 3 | EC50 (HeLa [2]; Homo sapiens, HeLa): 430 nM; EC50 (HeLa [3]; [9]): > 59000 nM; EC50 (NCI-H1299 [4]; Homo sapiens, NCI-H1299): 7600 nM; EC50 (NCI-H1299 [5]; Homo sapiens, NCI-H1299): 240 nM
CNc1cc2c(cc1Cl)NC(=O)Nc1cnc(C#N)c(n1)OCCCCCO2 | 2 | –
CC(C)(O)C#Cc1cc2c(cc1Cl)NC(=O)Nc1cnc(C#N)c(n1)OCCCCCO2 | 109 | –
N#Cc1ncc2nc1OCCCCCOc1cc(OCCn3ccnc3)c(Cl)cc1NC(=O)N2 | 3 | –
N#Cc1ncc2nc1OCCCCCOc1cc(NCc3ccncc3)c(Cl)cc1NC(=O)N2 | 13 | EC50 (HeLa [2]; hela): 1400 nM; EC50 (HeLa [3]; hela, read-out: EC50): > 59000 nM; EC50 (NCI-H1299 [4]; nci-h1299): > 10000 nM; EC50 (NCI-H1299 [5]; nci-h1299): 1200 nM
N#Cc1ncc2nc1OCCCCCOc1cc(NC(=O)CCNC3CCCC3)c(Cl)cc1NC(=O)N2 | 2 | –
N#Cc1ncc2nc1OCCCCCOc1cc(N(CCO)CCO)c(Cl)cc1NC(=O)N2 | 4 | –
N#Cc1ncc2nc1OCCCCCCOc1ccc(Cl)cc1NC(=O)N2 | 28 | –
N#Cc1ncc2nc1OCCCCCOc1cc(NCCO)c(Cl)cc1NC(=O)N2 | 2 | –
CC(C)CCCOc1cc2c(cc1Cl)NC(=O)Nc1cnc(C#N)c(n1)OCCCCCO2 | > 10000 | –
N#Cc1ncc2nc1OCCCCCOc1cc(OCc3ccccn3)c(Cl)cc1NC(=O)N2 | 63 | –
CN(C)c1cc2c(cc1Cl)NC(=O)Nc1cnc(C#N)c(n1)OCCCCCO2 | 7 | –
CC(C)Oc1cc2c(cc1Cl)NC(=O)Nc1cnc(C#N)c(n1)OCCCCCO2 | 13 | –
N#Cc1ncc2nc1OCCCCCOc1cc(NCc3ccccc3)c(Cl)cc1NC(=O)N2 | 266 | –
N#Cc1ncc2nc1OCCCCCOc1cc(NCc3ccsc3)c(Cl)cc1NC(=O)N2 | 162 | –
CC(=O)Nc1cc2c(cc1Cl)NC(=O)Nc1cnc(C#N)c(n1)OCCCCCO2 | 7 | –
COCCOc1cc2c(cc1Cl)NC(=O)Nc1cnc(C#N)c(n1)OCCCCCO2 | 5 | –
COCCOCCOc1cc2c(cc1Cl)NC(=O)Nc1cnc(C#N)c(n1)OCCCCCO2 | 9 | –
CS(=O)(=O)Nc1cc2c(cc1Cl)NC(=O)Nc1cnc(C#N)c(n1)OCCCCCO2 | – | Ki [6]: > 10000 nM; EC50 (HeLa [2]; Homo sapiens, HeLa): 2700 nM; EC50 (HeLa [3]; [9]): > 59000 nM; EC50 (NCI-H1299 [4]; Homo sapiens, NCI-H1299): > 10000 nM; Ki [7]: > 10000 nM; EC50 (NCI-H1299 [5]; Homo sapiens, NCI-H1299): 1600 nM; Ki [8]: > 10000 nM
